US10772909B2, “System and method for insulin-mimetic of cartilage, bone, or osteochondral repair and piezoelectric composite scaffold” (New Jersey Institute of Technology, priority 2016, dated 2020)

Tested on: PBMCs
Test: CellTiter-Blue viability assay
Format: cell-based, human
Conditions: 0.01, 0.1 and 1 mM Na2WO4; 4 days exposure
Experimental: CellTiter-Blue Assay (Promega, Madison, Wis.) was used to assess the viability of PBMCs. Cell Titre Blue was used to measure the metabolic activity of PBMCs as a surrogate for cell number. Each experimental group was performed in triplicate in 96-well tissue culture plates. After 4 days, CellTiter-Blue reagent (20 μL/well) was added to each well. The plates were incubated and after 4 hours, the fluorescence intensity was measured with microplate reader (Synergy, HTX, BioTek, Winooski, Vt., USA) at 560/590 nm emission. Percent viability was calculated as the fluorescence reading of treated (stimulated) cells divided by untreated healthy cells, which were considered 100% viable as described in Greco et al..

## [Na+].[Na+].[O]=[W](=[O])([O-])[O-] [Na2WO4, sodium tungstate]
  PBMC cell viability vs 0 mM: No significant differences in cell viability
